Three molecules from patent US5449787A, “N,N'-disubstituted amide derivatives” (Kyorin Pharmaceutical Co., Ltd., priority 1992, dated 1995) can be followed below.

The term IC50 denotes the concentration that gives 50% inhibition.

The target in test [1] is T1, 5-HT3 receptor (Rattus norvegicus, UniProt P35563).
T1 sequence (P35563 24-483): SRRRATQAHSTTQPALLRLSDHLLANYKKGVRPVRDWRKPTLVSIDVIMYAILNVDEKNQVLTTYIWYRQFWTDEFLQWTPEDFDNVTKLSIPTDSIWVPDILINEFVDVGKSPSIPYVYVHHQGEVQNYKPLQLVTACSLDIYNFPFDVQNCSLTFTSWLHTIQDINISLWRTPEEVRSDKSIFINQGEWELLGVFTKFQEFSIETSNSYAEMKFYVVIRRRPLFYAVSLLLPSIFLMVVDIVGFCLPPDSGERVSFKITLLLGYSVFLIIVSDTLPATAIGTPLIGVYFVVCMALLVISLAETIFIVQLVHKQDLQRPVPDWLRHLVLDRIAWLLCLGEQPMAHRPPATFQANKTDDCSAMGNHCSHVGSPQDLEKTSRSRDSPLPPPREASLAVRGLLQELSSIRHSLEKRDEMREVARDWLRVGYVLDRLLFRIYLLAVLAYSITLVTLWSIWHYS
The experiment in a line: 5-HT3 receptor-binding assay using [3H]GR65630 (rat cerebral cortex synaptic membrane). Further details: A crude specimen of synaptic membrane was prepared from the cerebral cortex of rat; from tissue; host or cells: rat cerebral cortex, crude synaptic membrane. Particulars: [3H]GR65630 0.2-0.3 nM, 50 mM HEPES with Triton X-100, 30 minutes at 23° C., nonspecific: 100 μM metoclopramide. An excerpt: (§1) The compound of the present invention has an antagonistic action to 5-HT receptor, in particular, to 5-HT3 receptor. Affinity of the compound of the present invention to 5-HT3 receptor is shown by a receptor-binding assay [refer to Gavin J. Kilpatrick et al, Eur. J. Pharmacol., 159, 157 (1989)] using [^3 H]GR65630 for a tracer legend. Moreover, the antagonistic action to 5-HT3 receptor is shown through inhibition of von Bezold Jarisch reflex caused by intravenously administering 5-HT to rat.
The specific 5-HT3 receptor-binding assay was performed according to the method by G. J. Kilpatrick et al. using [^3 H] GR 65630 as a tracer ligand.
A crude specimen of synaptic membrane was prepared from the cerebral cortex of rat and used for experiment by suspending it into 50 mM IIEPES buffer (pl 7.4) added with Triton X-100.
Next, testing compounds of several kinds of concentration and tritium-labelled GR 65630 (final concentration 0.2-0.3 nM) were added to the suspension of membrane and allowed to react for 30 minutes at 23° C. After the reaction, the reaction mixture was filtered under suction and the filter was washed with 50 mM HEPES buffer. Then, the radioactivity left behind on the filter was determined with a liquid scintillation counter.
The nonspecific binding was determined in the presence of 100 μM metoclopramide.
Then, 50% inhibitory concentration (IC50) of the compounds of Examples 10 through 12 was determined graphically (Table 1).

Test [2] addresses T1, 5-HT3 receptor. The experiment in a line: Antagonistic action on von Bezold Jarisch reflex. The class given is in vivo. Further details: Under the anesthetization of rat with urethane/chloralose; from tissue; host or cells: whole anaesthetized rat (in vivo); receptor endogenous, by own knowledge on vagal afferents. Particulars: urethane/chloralose-anesthetized rat, 5-HT 1 mg/kg intravenous; dose of test compound not given.
Excerpt: as §1
The antagonistic action of testing compounds to 5-HT3 was assayed according to the method described in Naunyn-Schmiedeberg's Arch. Pharmacol., vol. 326, 36 (1984).
Under the anesthetization of rat with urethane/chloralose, the blood pressure was monitored with hemodynamometer frown carotid arteries and the heart rate was monitored from electrocardiogram.

Counter-ions that a name gives are not always drawn.

For the molecule `CCN(C)[C@@H]1CN(C(=O)c2nn(C)c3ccccc23)C[C@@H]1C` (relative stereo) [Example 10, Cis-3-(N-ethyl-N-methyl)amino-4-methyl-1-(1-methylind-azol-3-ylcarbonyl)pyrrolidine hydrochloride], the IC50 at 5-HT3 receptor [1] was 1 nM. Further, the “inhibition of reflex bradycardia caused by intravenous 5-HT (von Bezold Jarisch reflex)” value on 5-HT3 receptor [2] is recorded as “inhibited the reflex bradycardia”.

As to `CCN(C)[C@@H]1CN(C(=O)c2cn(C)c3ccccc23)C[C@@H]1C` (relative stereo) [Example 12, Cis-3-(N-ethyl-N-methyl)amino-4-methyl-1-(1-methylindol-3-ylcarbonyl)pyrrolidine hydrochloride], the IC50 at 5-HT3 receptor [1] came out at 2 nM. Further, the “inhibition of reflex bradycardia caused by intravenous 5-HT (von Bezold Jarisch reflex)” value at 5-HT3 receptor [2] is recorded as “inhibited the reflex bradycardia”.

On 5-HT3 receptor [1], `CN(C)C1CCN(C(=O)c2nn(C)c3ccccc23)C1` (centres unmarked) [Example 11, 3-Dimethylamino-(1-methylindazol-3-ylcarbonyl)pyrrolidine hydrochloride] yielded an IC50 of 3 nM.
